Assay results published in patent US20230107642A1 (Erasca, Inc., priority 2020, published 2023).

Molecular target: T1, Cys12 of the KRAS 4B G12C protein (Homo sapiens, UniProt P01116, G12C)
T1 construct: This protein contained 188 amino acids in total, including an N-terminal 6-Histidine tag; made in house; host or cells: E. coli BL21
Assay: In vitro covalent adduct formation (CAF) assay, LC-MS intact mass
Format: binding
Conditions: 10 uM compound, 60 min
Summary of the method: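 Percent covalent modification from intact-mass LC-MS, by relative free versus adducted protein (adducts within 1 Da of expected mass). Reaction: 10 μM compound with 5 μM E. coli-expressed, GDP-exchanged KRAS 4B G12C in TBS pH 7.4, 4% DMSO, 1 h at 22° C.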

% CAF 10 uM @ 60 min [%] | SMILES
82.2 | C=CC(=O)N1[C@H](C)CN(c2nc(=O)n3c4c(c(-c5ccc(F)cc5F)c(C(F)(F)F)cc24)SC[C@@H]3CN(C)C)C[C@@H]1C (atropisomer, axis not shown) [Example 1324, (3S,10R)-7-((3S,5R)-4-acryloyl-3,5-dimethylpiperazin-1-yl)-10-(2,4-difluorophenyl)-3-((dimethylamino)methyl)-9-(trifluoromethyl)-2,3-dihydro-5H-[1,4]thiazino[2,3,4-ij]quinazolin-5-one]
99.6 | C=CC(=O)N1CCN(c2nc(=O)n3c4c(c(-c5ccc(F)cc5F)c(C(F)(F)F)cc24)SC[C@@H]3CN2CCN(CC)CC2)CC1 (atropisomer, axis not shown) [Example 1318, (3S,10R)-7-(4-acryloylpiperazin-1-yl)-10-(2,4-difluorophenyl)-3-((4-ethylpiperazin-1-yl)methyl)-9-(trifluoromethyl)-2,3-dihydro-5H-[1,4]thiazino[2,3,4-ij]quinazolin-5-one]
96.1 | C=CC(=O)N1[C@H](C)CN(c2nc(=O)n3c4c(c(-c5ccc(F)cc5)c(C(F)(F)F)cc24)SC[C@@H]3CN2C[C@@H]3C[C@H]2CO3)C[C@@H]1C [Example 1352, (S)-3-(((1S,4S)-2-oxa-5-azabicyclo[2.2.1]heptan-5-yl)methyl)-7-((3S,5R)-4-acryloyl-3,5-dimethylpiperazin-1-yl)-10-(4-fluorophenyl)-9-(trifluoromethyl)-2,3-dihydro-5H-[1,4]thiazino[2,3,4-ij]quinazolin-5-one]
87 | C=CC(=O)N1[C@H](C)CN(c2nc(=O)n3c4c(c(-c5cc(Cl)c(F)cc5F)c(C(F)(F)F)cc24)SC[C@@H]3CN2C[C@@H]3C[C@H]2CO3)C[C@@H]1C (atropisomer, axis not shown) [Example 1332, (3S,10S)-3-(((1S,4S)-2-oxa-5-azabicyclo[2.2.1]heptan-5-yl)methyl)-7-((3S,5R)-4-acryloyl-3,5-dimethylpiperazin-1-yl)-10-(5-chloro-2,4-difluorophenyl)-9-(trifluoromethyl)-2,3-dihydro-5H-[1,4]thiazino[2,3,4-ij]quinazolin-5-one]
96.5 | C=CC(=O)N1[C@H](C)CN(c2nc(=O)n3c4c(c(-c5ccc(F)cc5)c(C(F)(F)F)cc24)SCC(COC)(COC)C3)C[C@@H]1C [Example 1409, 8-((3S,5R)-4-acryloyl-3,5-dimethylpiperazin-1-yl)-11-(4-fluorophenyl)-3,3-bis(methoxymethyl)-10-(trifluoromethyl)-3,4-dihydro-[1,4]thiazepino[2,3,4-ij]quinazolin-6(2H)-one]
49.1 | C=CC(=O)N1C[C@H](C)N(c2nc(=O)n3c4c(c(-c5cccc6cnn(C)c56)c(C(F)(F)F)cc24)SC[C@@H]3CN2CCN(CC)CC2)C[C@H]1C (atropisomer, axis not shown) [Example 1382, (3S,10S)-7-((2S,5R)-4-acryloyl-2,5-dimethylpiperazin-1-yl)-3-((4-ethylpiperazin-1-yl)methyl)-10-(1-methyl-1H-indazol-7-yl)-9-(trifluoromethyl)-2,3-dihydro-5H-[1,4]thiazino[2,3,4-ij]quinazolin-5-one]
96.3 | C=CC(=O)N1CCN(c2nc(=O)n3c4c(c(-c5ccc(F)cc5)c(C(F)(F)F)cc24)SC[C@@H]3COCOC)CC1 [Example 1358, (S)-7-(4-acryloylpiperazin-1-yl)-10-(4-fluorophenyl)-3-((methoxymethoxy)methyl)-9-(trifluoromethyl)-2H-[1,4]thiazino[2,3,4-ij]quinazolin-5(3H)-one]
95.4 | [2H]C([2H])([2H])OC[C@H]1CSc2c(-c3ccc(F)cc3F)c(C(F)(F)F)cc3c(N4C[C@@H](C)N(C(=O)C=C)[C@@H](C)C4)nc(=O)n1c23 [Example 1418, (3S)-7-((3S,5R)-4-acryloyl-3,5-dimethylpiperazin-1-yl)-10-(2,4-difluorophenyl)-3-((methoxy-d3)methyl)-9-(trifluoromethyl)-2,3-dihydro-5H-[1,4]thiazino[2,3,4-ij]quinazolin-5-one]
69.1 | C=CC(=O)N1[C@H](C)CN(c2nc(=O)n3c4c(c(-c5cccc6cnn(C)c56)c(C(F)(F)F)cc24)SC[C@@H]3CN2CCN(CC)CC2)C[C@@H]1C (atropisomer, axis not shown) [Example 1389, (3S,10S)-7-((3S,5R)-4-acryloyl-3,5-dimethylpiperazin-1-yl)-3-((4-ethylpiperazin-1-yl)methyl)-10-(1-methyl-1H-indazol-7-yl)-9-(trifluoromethyl)-2,3-dihydro-5H-[1,4]thiazino[2,3,4-ij]quinazolin-5-one]

Same assay, conditions: 10 uM compound, 60 min incubation

% CAF 10 uM @ 60 min [%] | SMILES
98.4 | C=CC(=O)N1CCN(c2nc(=O)n3c4c(c(-c5ccc(F)cc5)c(C(F)(F)F)cc24)SCC2(COC2)C3)CC1 [Example 1116, 8′-(4-acryloylpiperazin-1-yl)-11′-(4-fluorophenyl)-10′-(trifluoromethyl)-2′H,4′H,6′H-spiro[oxetane-3,3′-[1,4]thiazepino [2,3,4-ij]quinazolin]-6′-one]
96.1 | C=CC(=O)N1C[C@H](C)N(c2nc(=O)n3c4c(c(-c5ccc(F)cc5F)c(C(F)(F)F)cc24)SCC2(COC2)C3)C[C@H]1C (atropisomer, axis not shown) [Example 1110, (R)-8′-((2S,5R)-4-acryloyl-2,5-dimethylpiperazin-1-yl)-11′-(2,4-difluorophenyl)-10′-(trifluoromethyl)-2′H,4′H,6′H-spiro[oxetane-3,3′-[1,4]thiazepino [2,3,4-ij]quinazolin]-6′-one]
97.2 | C=CC(=O)N1[C@H](C)CN(c2nc(=O)n3c4c(c(-c5ccc(F)cc5F)c(C(F)(F)F)cc24)SCC2(CN(CC)C2)C3)C[C@@H]1C [Example 1104, 8-((3S,5R)-4-acryloyl-3,5-dimethylpiperazin-1-yl)-11-(2,4-difluorophenyl)-1′-ethyl-10-(trifluoromethyl)-2H-spiro[[1,4]thiazepino[2,3,4-ij]quinazoline-3,3′-azetidin]-6(4H)-one]
94.5 | C=CC(=O)N1C[C@H](C)N(c2nc(=O)n3c4c(c(-c5cccc6cnn(C)c56)c(C(F)(F)F)cc24)SC[C@@H]3COC)C[C@H]1C (atropisomer, axis not shown) [Example 1102, (3S,10S)-7-((2S,5R)-4-acryloyl-2,5-dimethylpiperazin-1-yl)-3-(methoxymethyl)-10-(1-methyl-1H-indazol-7-yl)-9-(trifluoromethyl)-2,3-dihydro-5H-[1,4]thiazino[2,3,4-ij]quinazolin-5-one]

Same assay, conditions: 10 μM compound, after 1 hour

CAF (% after 1 hour) [%] | SMILES
81 | C=CC(=O)N1[C@H](C)CN(c2nc(=O)n3c4c(c(-c5ccc(F)cc5C#N)c(C(F)(F)F)cc24)SC[C@@H](OC)C3)C[C@@H]1C [Example 1226, 2-((3S)-8-((3S,5R)-4-Acryloyl-3,5-dimethylpiperazin-1-yl)-3-methoxy-6-oxo-10-(trifluoromethyl)-3,4-dihydro-2H,6H-[1,4]thiazepino[2,3,4-ij]quinazolin-11-yl)-5-fluorobenzonitrile]

Same assay, conditions: after 60 min

CAF (% binding after 60 min) [%] | SMILES
96 | C=CC(=O)N1[C@H](C)CN(c2nc(=O)n3c4c(c(-c5ccc(F)cc5F)c(C(F)(F)F)cc24)SC[C@@H](OCCOC)C3)C[C@@H]1C [Example 1027, (3S)-8-((3S,5R)-4-acryloyl-3,5-dimethylpiperazin-1-yl)-11-(2,4-difluorophenyl)-3-(2-methoxyethoxy)-10-(trifluoromethyl)-3,4-dihydro-2H,6H-[1,4]thiazepino[2,3,4-ij]quinazolin-6-one 3,4-dihydro-2H,6H-[1,4]thiazepino[2,3,4-ij]quinazolin-6-one]
97 | C=CC(=O)N1CCN(c2nc(=O)n3c4c(c(-c5ccc(F)c(Cl)c5)c(C(F)(F)F)cc24)SC[C@@H](OC)C3)CC1 [Example 1042, (S)-8-(4-acryloylpiperazin-1-yl)-11-(3-chloro-4-fluorophenyl)-3-methoxy-10-(trifluoromethyl)-3,4-dihydro-2H,6H-[1,4]thiazepino[2,3,4-ij]quinazolin-6-one]
96 | C=CC(=O)N1[C@H](C)CN(c2nc(=O)n3c4c(c(-c5ccc(F)c(Cl)c5)c(C(F)(F)F)cc24)SC[C@@H](OCCOC)C3)C[C@@H]1C [Example 1029, (S)-8-((3S,5R)-4-acryloyl-3,5-dimethylpiperazin-1-yl)-11-(3-chloro-4-fluorophenyl)-3-(2-methoxyethoxy)-10-(trifluoromethyl)-3,4-dihydro-2H,6H-[1,4]thiazepino[2,3,4-ij]quinazolin-6-one]
97 | C=CC(=O)N1CCN(c2nc(=O)n3c4c(c(-c5ccc(F)c(Cl)c5)c(C(F)(F)F)cc24)SC[C@H](OC)C3)CC1 [Example 1041, (R)-8-(4-acryloylpiperazin-1-yl)-11-(3-chloro-4-fluorophenyl)-3-methoxy-10-(trifluoromethyl)-3,4-dihydro-2H,6H-[1,4]thiazepino[2,3,4-ij]quinazolin-6-one]
90 | C=CC(=O)N1CCN(c2nc(=O)n3c4c(c(-c5ccc(F)c(Cl)c5)c(C(F)(F)F)cc24)SC[C@H](OCOC)C3)CC1 [Example 1006, (R)-8-(4-acryloylpiperazin-1-yl)-11-(3-chloro-4-fluorophenyl)-3-(methoxymethoxy)-10-(trifluoromethyl)-3,4-dihydro-2H,6H-[1,4]thiazepino[2,3,4-ij]quinazolin-6-one]
96 | C=CC(=O)N1[C@H](C)CN(c2nc(=O)n3c4c(c(-c5ccc(F)cc5)c(C(F)(F)F)cc24)SC[C@@H](OCCN(C)C)C3)C[C@@H]1C [Example 1033, (S)-8-((3S,5R)-4-acryloyl-3,5-dimethylpiperazin-1-yl)-3-(2-(dimethylamino)ethoxy)-11-(4-fluorophenyl)-10-(trifluoromethyl)-3,4-dihydro-2H,6H-[1,4]thiazepino[2,3,4-ij]quinazolin-6-one]
